Measured values taken from patent US10336702B2, “Pharmaceutically active compounds” (BERGENBIO ASA, priority 2015, dated 2019).

Legend:
p-Akt2 in WM115 cells = target: T1, p-Akt2 in WM115 cells (Homo sapiens, UniProt P31751); assay: Phospho-Akt cellular SureFire assay, p-Akt2 in WM115 cells; assay type: cell-based; details: insulin stimulated, read-out: Biological Assay 2 IC50 (nM) Akt2 WM115
T1 construct: SureFire assays to detect cellular p-Akt1, p-Akt2 and p-Akt3 levels in WM115 cells (Akt2/3) and LNCaP cells (Akt1); endogenous in cells; host or cells: WM115 (ECACC 91061232), insulin-stimulated
From the text: (§1) Biological Assay 2: Phospho-Akt (p-Akt) Cellular SureFire Assays
(§2) The following describes SureFire assays to detect cellular p-Akt1, p-Akt2 and p-Akt3 levels in WM115 cells (Akt2/3) and LNCaP cells (Akt1). In the case of Akt2 and Akt3, Streptavidin-coated donor beads capture a biotinylated anti-mouse antibody that in turn recognises a mouse total Akt antibody which is specific to each isoform. The protein A-conjugated acceptor beads capture an antibody that recognises the phosphoprotein. Similarly in the Akt1 kit, the donor and acceptor beads are used to capture each antibody pair consisting of an antibody that specifically recognises Akt1 as well as an antibody that recognises the phosphoprotein. In each case, close proximity of the beads allows energy transfer from donor to acceptor.
(§3) Custom kit from TGR/Perkin Elmer for Akt2/3 containing anti-(pThr308)Akt antibody and biotinylated anti-mouse capture antibody.
Total Akt2 antibody (NEB UK, 5239)
(§4) WM115 cells (ECACC, 91061232) cultured in MEM culture media (M2279) supplemented with 2 mM L-glutamine (G7513), 1% non-essential amino acids (M7145), 1% sodium pyruvate (S8636) and 10% FBS (F0804)
(§5) Cell treatment: 1×10^5 WM115 cells or 5×10^4 LNCaP cells were seeded into each well of a 96 well poly-D-Lysine coated tissue culture plate and incubated overnight at 37° C.+5% CO2. Media was removed from cells and replaced with assay buffer consisting of the full culture media described above but with 0.1% FBS instead of 10% FBS. Only WM115 cells were stimulated at 37° C.+5% CO2 for 10 min with 5 μL insulin at a final concentration of 100 nM. Cells were incubated with 5 μL of test compound at a final DMSO concentration of 0.3% for 15 min at 37° C.+5% CO2. Cell lysis was carried out according to kit instructions.
(§6) Assay format (performed in subdued lighting): 4 μL cell lysate and 5 μL reaction buffer were incubated together in the dark at room temperature for 2 h. Reaction buffer was supplemented with a 1/5 dilution of activation buffer, a 1/50 dilution of acceptor beads and in the case of the custom kits, antibodies were added at dilutions of 1/20,000 for Akt2 and 1/2,000 for Akt3.
(§7) 2 μL dilution buffer, supplemented with a 1/20 dilution of donor beads was added to each well and incubated for a further 2 h. Plates were read with the EnVision® Multilabel Plate Reader and using the AlphaScreen settings. Compound IC50 was determined using a 4-parameter equation.

p-Akt3 in WM115 cells = target: T2, p-Akt3 in WM115 cells (Homo sapiens, UniProt Q9Y243); assay: Phospho-Akt cellular SureFire assay, p-Akt3 in WM115 cells; assay type: cell-based; details: insulin stimulated, read-out: Biological Assay 2 IC50 (nM) Akt3 WM115
T2 construct: SureFire assays to detect cellular p-Akt1, p-Akt2 and p-Akt3 levels in WM115 cells (Akt2/3) and LNCaP cells (Akt1); endogenous in cells; host or cells: WM115 (ECACC 91061232), insulin-stimulated
From the text: as §1, §2, §3
Total Akt3 antibody (R&D Systems MAB 1463)
as §4, §5, §6, §7

Akt3 = target: T3, Akt3 (Homo sapiens, UniProt Q9Y243); assay: Akt activation assay (PDK1-mediated activation, LANCE Ultra crosstide TR-FRET), Akt3; assay type: biochemical; details: read-out: Biological Assay 1 IC50 (nM) Akt3
T3 construct: unspecified tag, removed (detagged) (cleaved yes); purchased SignalChem and Proteros (Akt3); Merck Millipore (PDK1) 14-452 (PDK1); none given for Akt3
Protocol: (§8) Biological Assay 1: Akt Activation Assay
(§9) Addition of a Europium-labelled antibody specific to the phosphopeptide allows energy transfer from the Europium donor to the Ultra Ulight™ acceptor if close enough in proximity.
(§10) Full length active His6-tagged PDK1 was obtained from Merck Millipore (14-452).
(§11) 1× assay buffer (AB): 50 mM HEPES pH 7.5, 1 mM EGTA, 10 mM MgCl2, 0.01% Tween. Immediately before use, DTT to a concentration of 2 mM was added.
(§12) To prepare lipid vesicles: 1 mg/ml PtdIns(3,4,5)P3 solution (in 10 mM HEPES 7.5) was added to 16.7 mg/ml DOPS/DOPC mixture (in 10 mM HEPES pH 7.5) in a ratio of 1:8.3. MilliQ water was added to the solution to generate concentrations of 400 μM DOPS, 400 μM DOPC and 40 μM PtdIns(3,4,5)P3. The mixture was subjected to 5× freeze/thaw cycles and aliquots stored at −20° C.
(§13) 5 μL enzyme in 1×AB was incubated with 2.5 μL test compound. To start the reaction 2.5 μL reaction mix was added which consisted of PDK1, lipid preparations, crosstide and ATP in 1×AB. Final assay concentrations were as follows: 1% DMSO, 5 nM SignalChem Akt1/15 nM SignalChem Akt2/3 nM Signalchem Akt3/5 nM Proteros Akt1/5 nM proteros Akt2/5 nM Proteros Akt3, 5 nM PDK1, 5.5 μM DOPS, 5.5 μM DOPC, 0.55 μM PtdIns(3,4,5)P3, 100 μM ATP, 100 nM LANCE® Ultra Ulight™-Crosstide. After 30 min, the reaction was stopped using 5 μL 40 μM EDTA in 1× Detection buffer for 5 min. For detection, 5 μL 8 nM LANCE® Ultra Europium-anti-phospho-Crosstide antibody in 1× Detection buffer was added to each well and incubated for 1 h. Plates read with the EnVision® Multilabel Plate Reader, excitation at 320 nm and emission at 665 nm and 615 nm. Compound IC50 was determined using a 4-parameter equation.

Akt2 = target: T4, Akt2 (Homo sapiens, UniProt P31751); assay: Akt activation assay (PDK1-mediated activation, LANCE Ultra crosstide TR-FRET), Akt2; assay type: biochemical; details: read-out: Biological Assay 1 IC50 (nM) Akt2
T4 construct: unspecified tag, removed (detagged) (cleaved yes); purchased SignalChem and Proteros (Akt2); Merck Millipore (PDK1) 14-452 (PDK1); none given for Akt2
Protocol: as §8, §9, §10, §11, §12, §13

Akt1 = target: T5, Akt1 (Homo sapiens, UniProt P31749); assay: Akt activation assay (PDK1-mediated activation, LANCE Ultra crosstide TR-FRET), Akt1; assay type: biochemical; details: read-out: Biological Assay 1 IC50 (nM) Akt1
T5 construct: unspecified tag, removed (detagged) (cleaved yes); purchased SignalChem and Proteros (Akt1); Merck Millipore (PDK1) 14-452 (PDK1); none given for Akt1
Protocol: as §8, §9, §10, §11, §12, §13

T1 sequence (P31751 whole entry): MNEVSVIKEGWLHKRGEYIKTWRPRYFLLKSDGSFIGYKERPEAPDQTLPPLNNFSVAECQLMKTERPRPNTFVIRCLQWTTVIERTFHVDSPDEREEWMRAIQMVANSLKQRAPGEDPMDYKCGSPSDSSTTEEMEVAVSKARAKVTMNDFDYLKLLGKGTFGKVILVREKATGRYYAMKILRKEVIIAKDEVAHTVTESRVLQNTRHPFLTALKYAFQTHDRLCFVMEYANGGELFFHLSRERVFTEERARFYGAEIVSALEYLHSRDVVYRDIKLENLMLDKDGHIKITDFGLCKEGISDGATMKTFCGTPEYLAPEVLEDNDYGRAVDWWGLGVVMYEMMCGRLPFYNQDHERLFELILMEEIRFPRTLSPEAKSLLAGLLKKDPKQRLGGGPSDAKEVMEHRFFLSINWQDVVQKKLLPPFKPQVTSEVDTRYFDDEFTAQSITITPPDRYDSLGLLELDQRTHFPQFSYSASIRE
T4 sequence (P31751 whole entry): as above
T5 sequence (P31749 whole entry): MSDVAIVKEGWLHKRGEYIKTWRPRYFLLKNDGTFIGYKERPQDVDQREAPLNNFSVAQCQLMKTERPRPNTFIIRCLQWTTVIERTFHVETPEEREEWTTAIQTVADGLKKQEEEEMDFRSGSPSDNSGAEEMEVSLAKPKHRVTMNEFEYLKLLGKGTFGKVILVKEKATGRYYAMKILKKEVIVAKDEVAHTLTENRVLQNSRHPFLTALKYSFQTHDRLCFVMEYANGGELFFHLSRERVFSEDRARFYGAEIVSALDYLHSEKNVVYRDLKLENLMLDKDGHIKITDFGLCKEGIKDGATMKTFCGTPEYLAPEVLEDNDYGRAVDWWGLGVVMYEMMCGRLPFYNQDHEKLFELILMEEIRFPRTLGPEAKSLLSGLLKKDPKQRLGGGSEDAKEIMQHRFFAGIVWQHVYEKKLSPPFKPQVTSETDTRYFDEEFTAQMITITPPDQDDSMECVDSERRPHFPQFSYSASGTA
T3 sequence (Q9Y243 whole entry): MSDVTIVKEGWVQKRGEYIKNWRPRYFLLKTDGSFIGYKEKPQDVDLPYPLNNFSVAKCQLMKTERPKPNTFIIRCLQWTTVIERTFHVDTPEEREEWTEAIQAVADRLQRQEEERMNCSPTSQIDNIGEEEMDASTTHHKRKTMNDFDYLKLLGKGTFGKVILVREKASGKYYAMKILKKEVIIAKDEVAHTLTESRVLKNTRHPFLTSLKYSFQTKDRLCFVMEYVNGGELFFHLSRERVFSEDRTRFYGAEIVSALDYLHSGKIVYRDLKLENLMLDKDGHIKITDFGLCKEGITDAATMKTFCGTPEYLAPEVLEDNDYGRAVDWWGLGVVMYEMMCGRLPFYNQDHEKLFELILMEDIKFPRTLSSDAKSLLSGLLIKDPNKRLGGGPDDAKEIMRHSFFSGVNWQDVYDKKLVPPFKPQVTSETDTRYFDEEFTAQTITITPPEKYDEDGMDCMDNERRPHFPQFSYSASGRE
T2 sequence (Q9Y243 whole entry): as above

IC50 (p-Akt2 in WM115 cells) [nM]	IC50 (p-Akt3 in WM115 cells) [nM]	IC50 (Akt3) [nM]	IC50 (Akt2) [nM]	IC50 (Akt1) [nM]	Compound
10000	420	44	1100	–	COC(=O)N(C)C1CCC(CC(=O)Nc2cnc(-c3ccc(C4(N)CC(F)C4)cc3)c(-c3ccsc3)c2)CC1 (stereo not drawn) [Example A66, Methyl (trans-4-(2-((6-(4-(trans-1-amino-3-fluorocyclobutyl)phenyl)-5-(thiophen-3-yl)pyridin-3-yl)amino)-2-oxoethyl)cyclohexyl)(methyl)carbamate]
670	16	10	220	–	CCN(C(C)=O)[C@H]1CC[C@H](CC(=O)Nc2cc(-c3ccccc3)c(-c3ccc([C@]4(N)C[C@](C)(O)C4)cc3)cn2)CC1 [Example 108, N-(5-(4-(trans-1-amino-3-hydroxy-3-methylcyclobutyl)phenyl)-4-phenylpyridin-2-yl)-2-(trans-4-(N-ethylacetamido)cyclohexyl)acetamide]
3000	57	–	–	–	COC(=O)N(C)[C@H]1CC[C@H](CC(=O)Nc2cc(-c3ccsc3)c(-c3ccc([C@]4(N)C[C@](C)(O)C4)cc3)cn2)CC1 [Example 89, Methyl (trans-4-(2-((5-(4-(trans-1-amino-3-hydroxy-3-methylcyclobutyl)phenyl)-4-(thiophen-3-yl)pyridin-2-yl)amino)-2-oxoethyl)cyclohexyl)(methyl)carbamate]
–	–	56	590	> 30000	NC1(c2ccc(-c3ncc(NC(=O)C[C@H]4CC[C@H](NS(=O)(=O)C5CC5)CC4)cc3-c3ccccc3)cc2)COC1 [Example 37, N-(6-(4-(3-aminooxetan-3-yl)phenyl)-5-phenylpyridin-3-yl)-2-(trans-4-(cyclopropanesulfonamido)cyclohexyl)acetamide]
–	–	830	8100	> 30000	C[C@H](N)c1ccc(-c2ncc(NC(=O)C[C@H]3CC[C@H](N(C)S(C)(=O)=O)CC3)cc2-c2ccccc2)cc1 [Example A13, N-(6-(4-((S)-1-aminoethyl)phenyl)-5-phenylpyridin-3-yl)-2-(trans-4-(N-methylmethylsulfonamido)cyclo-hexyl)acetamide]
–	–	160	6800	> 30000	CC(C)(N)c1ccc(-c2ncc(NC(=O)C[C@H]3CC[C@H](NC(=O)C4CCC4)CC3)cc2-c2ccccc2)cc1 [Example A36, N-(trans-4-(2-((6-(4-(2-aminopropan-2-yl)phenyl)-5-phenylpyridin-3-yl)amino)-2-oxoethyl)cyclohexyl)cyclobutanecarboxamide]
–	–	4600	18000	> 30000	C[C@H](N)c1ccc(-c2ncc(NC(=O)C[C@H]3CC[C@H](NC(=O)C(C)(C)C(F)(F)F)CC3)cc2-c2ccccc2)cc1 [Example A10, N-(trans-4-(2-((6-(4-((S)-1-aminoethyl)phenyl)-5-phenylpyridin-3-yl)amino)-2-oxoethyl)cyclohexyl)-3,3,3-trifluoro-2,2-dimethylpropanamide]
–	–	20	370	9400	NC1(c2ccc(-c3ncc(NC(=O)C[C@H]4CC[C@H](NC(=O)C(F)F)CC4)cc3-c3ccccc3)cc2)CCC1 [Example A35, N-(trans-4-(2-((6-(4-(1-aminocyclobutyl)phenyl)-5-phenylpyridin-3-yl)amino)-2-oxoethyl)cyclohexyl)-2,2-difluoroacetamide]
–	–	290	16000	> 30000	CN(C(=O)CC(C)(C)C)[C@H]1CC[C@H](CC(=O)Nc2cnc(-c3ccc(C(C)(C)N)cc3)c(-c3ccccc3)c2)CC1 [Example A30, N-(trans-4-(2-((6-(4-(2-aminopropan-2-yl)phenyl)-5-phenylpyridin-3-yl)amino)-2-oxoethyl)cyclohexyl)-N,3,3-trimethylbutanamide]
–	–	10	43	760	C[C@]1(O)C[C@@](N)(c2ccc(-c3ncc(NC(=O)C[C@H]4CC[C@H](NC(=O)C(F)F)CC4)cc3-c3ccccc3)cc2)C1 [Example A5, N-(trans-4-(2-((6-(4-(trans-1-amino-3-hydroxy-3-methylcyclobutyl)phenyl)-5-phenylpyridin-3-yl)amino)-2-oxoethyl)cyclohexyl)-2,2-difluoroacetamide]
–	–	170	270	8300	CC(=O)N[C@H]1CC[C@H](CC(=O)Nc2cnc(-c3ccc(C4(N)CC(F)(F)C4)cc3)c(-c3ccccc3)c2)CC1 [Example 25, 2-(trans-4-acetamidocyclohexyl)-N-(6-(4-(1-amino-3,3-difluorocyclobutyl)phenyl)-5-phenylpyridin-3-yl)acetamide]
–	–	6800	> 15000	> 30000	CC(C)(C(=O)N[C@H]1CC[C@H](CC(=O)Nc2cnc(-c3ccc(C4(N)CCC4)cc3)c(-c3cccnc3)c2)CC1)C(F)(F)F [Example 20, N-(trans-4-(2-((2-(4-(1-aminocyclobutyl)phenyl)-[3,3′-bipyridin]-5-yl)amino)-2-oxoethyl)cyclohexyl)-3,3,3-trifluoro-2,2-dimethylpropanamide]
–	–	210	2600	> 30000	C[C@@H]1CC(CC(=O)Nc2cnc(-c3ccc(C4(N)COC4)cc3)c(-c3ccccc3)c2)C[C@H](C)O1 (stereo partly shown) [Example 22, N-(6-(4-(3-aminooxetan-3-yl)phenyl)-5-phenylpyridin-3-yl)-2-((2r,6s)-2,6-dimethyltetrahydro-2H-pyran-4-yl)acetamide]
–	–	1900	22000	> 30000	CC(=O)N[C@H]1CC[C@H](CC(=O)Nc2cnc(-c3ccc(C(C)(C)N)cc3)c(-c3ccsc3)c2)CC1 [Example A23, 2-(trans-4-acetamidocyclohexyl)-N-(6-(4-(2-aminopropan-2-yl)phenyl)-5-(thiophen-3-yl)pyridin-3-yl)acetamide]
